Results: patent US10800786B2, “Bicyclic compounds as ATX inhibitors” (Hoffmann-La Roche Inc., priority 2015, dated 2020)

Target: ATX (human His-tagged) (Homo sapiens (Human), UniProt Q13822)
Test: Human ATX enzyme inhibition assay (fluorescence quenching, MR121 substrate)
Type: biochemical
Conditions: not given
Protocol: Human Atx Enzyme Inhibition Assay
Assay working solutions were made as follows:
Assay buffer (50 mM Tris-HCl, 140 mM NaCl, 5 mM KCl, 1 mM CaCl2, 1 mM MgCl2, 0.01% Triton-X-100, pH 8.0;
MR121 substrate solution: MR121 substrate stock solution (800 μM MR121 substrate in DMSO), diluted to 2-5× final concentration in assay buffer.
10 μL of MR121 substrate solution was added ([…] final concentration), mixed 30 times and then incubated for 15 minutes at 30° C.

Row | Compound | IC50 [nM]
1 | O=C(c1cc(OCC2CCOCC2)nc(C2CC2)c1)N1CC2=C(CC(C(=O)N3CCc4[nH]nnc4C3)C2)C1 [Example 4.01, [2-cyclopropyl-6-(oxan-4-ylmethoxy)pyridin-4-yl]-[5-(1,4,6,7-tetrahydrotriazolo[4,5-c]pyridine-5-carbonyl)-3,4,5,6-tetrahydro-1H-cyclopenta[c]pyrrol-2-yl]methanone] | 10

Same assay, conditions: 30 nM ATX, MR121 substrate, 30° C., pH 8.0; read-out: ATX IC50

Row | Compound | IC50 [nM]
2 | CC(C)(C)C(=O)Nc1cc(C(F)(F)F)cnc1COC(=O)N1CC2=C(C1)CN(C(=O)[C@@H]1CCc3[nH]nnc3C1)C2 [Example 1.00, [3-(2,2-Dimethylpropanoylamino)-5-(trifluoromethyl)pyridin-2-yl]methyl 2-[(5R)-4,5,6,7-tetrahydro-1H-benzotriazole-5-carbonyl]-1,3,4,6-tetrahydropyrrolo[3,4-c]pyrrole-5-carboxylate] | 7
3 | Cn1c(=O)[nH]c2ccc(C(=O)N3CC4=C(CN(C(=O)c5cc(OCC6CCOCC6)nc(C6CC6)c5)C4)C3)cc21 [Example 1.01, 6-(5-(2-cyclopropyl-6-((tetrahydro-2H-pyran-4-yl)methoxy)isonicotinoyl)-1,2,3,4,5,6-hexahydropyrrolo[3,4-c]pyrrole-2-carbonyl)-1-methyl-1H-benzo[d]imidazol-2(3H)-one] | 8
4 | O=C(c1cc(OCC2CCOCC2)nc(C2CC2)c1)N1CC2=C(C1)CN(C(=O)[C@@H]1CCc3[nH]nnc3C1)C2 [Example 1.02, [2-cyclopropyl-6-(oxan-4-ylmethoxy)pyridin-4-yl]-[5-[(5R)-4,5,6,7-tetrahydro-1H-benzotriazole-5-carbonyl]-1,3,4,6-tetrahydropyrrolo[3,4-c]pyrrol-2-yl]methanone] | 5
5 | O=C(c1cc(OCC2CCOCC2)nc(C2CC2)c1)N1CC2=C(C1)CN(C(=O)c1ccc3[nH]nnc3c1)C2 [Example 1.03] | 5
6 | CC(C)(C)C(=O)Nc1cc(C(F)(F)F)cnc1COC(=O)N1CC2=C(C1)CN(C(=O)c1ccc3[nH]nnc3c1)C2 [Example 1.04, [3-(2,2-dimethylpropanoylamino)-5-(trifluoromethyl)pyridin-2-yl]methyl 2-(1H-benzotriazole-5-carbonyl)-1,3,4,6-tetrahydropyrrolo[3,4-c]pyrrole-5-carboxylate] | 8
7 | O=C(OCc1ccc(OC(F)(F)F)cc1)N1CC2=C(C1)CN(C(=O)c1ccc3[nH]nnc3c1)C2 [Example 1.05, 4-(trifluoromethoxy)benzyl 5-(1H-benzo[d][1,2,3]triazole-5-carbonyl)-3,4,5,6-tetrahydropyrrolo[3,4-c]pyrrole-2(1H)-carboxylate] | 3
8 | Cc1nnn(Cc2cc(C(F)(F)F)ccc2CCC(=O)N2CC3=C(C2)CN(C(=O)c2ccc4[nH]nnc4c2)C3)n1 [Example 1.06, 1-[5-(1H-benzotriazole-5-carbonyl)-1,3,4,6-tetrahydropyrrolo[3,4-c]pyrrol-2-yl]-3-[2-[(5-methyltetrazol-2-yl)methyl]-4-(trifluoromethyl)phenyl]propan-1-one] | 11
9 | CC(C)(C)C(=O)Nc1cc(C(F)(F)F)cnc1COC(=O)N1CCC2=C(CCN(C(=O)c3ccc4[nH]nnc4c3)C2)C1 [Example 1.07, [3-(2,2-dimethylpropanoylamino)-5-(trifluoromethyl)pyridin-2-yl]methyl 6-(1H-benzotriazole-5-carbonyl)-1,3,4,5,7,8-hexahydro-2,6-naphthyridine-2-carboxylate] | 17
10 | CC(C)(C)C(=O)Nc1cc(Cl)c(Cl)nc1COC(=O)N1CC2=C(C1)CN(C(=O)c1ccc3[nH]nnc3c1)C2 [Example 1.08, [5,6-dichloro-3-(2,2-dimethylpropanoylamino)pyridin-2-yl]methyl 2-(1H-benzotriazole-5-carbonyl)-1,3,4,6-tetrahydropyrrolo[3,4-c]pyrrole-5-carboxylate] | 7
11 | O=C(c1cc(OCC2CCOCC2)nc(C2CC2)c1)N1CC2=C(C1)CN(C(=O)c1ccc3c(O)noc3c1)C2 [Example 1.09, [5-[2-cyclopropyl-6-(oxan-4-ylmethoxy)pyridine-4-carbonyl]-1,3,4,6-tetrahydropyrrolo[3,4-c]pyrrol-2-yl]-(3-hydroxy-1,2-benzoxazol-6-yl)methanone] | 4
12 | O=C1NS(=O)(=O)c2cc(C(=O)N3CC4=C(CN(C(=O)c5cc(OCC6CCOCC6)nc(C6CC6)c5)C4)C3)ccc21 [Example 1.10, 6-[5-[2-cyclopropyl-6-(oxan-4-ylmethoxy)pyridine-4-carbonyl]-1,3,4,6-tetrahydropyrrolo[3,4-c]pyrrole-2-carbonyl]-1,1-dioxo-1,2-benzothiazol-3-one] | 13
13 | CC(C)(C)C(=O)Nc1cc(C(F)(F)F)cnc1COC(=O)N1CC2=C(C1)CN(C(=O)N1CCc3[nH]nnc3C1)C2 [Example 2.00, [3-(2,2-Dimethylpropanoylamino)-5-(trifluoromethyl)pyridin-2-yl]methyl 2-(1,4,6,7-tetrahydrotriazolo[4,5-c]pyridine-5-carbonyl)-1,3,4,6-tetrahydropyrrolo[3,4-c]pyrrole-5-carboxylate] | 5
14 | O=C(c1cc(OCC2CCOCC2)nc(C2CC2)c1)N1CC2=C(C1)CN(C(=O)N1CCc3[nH]nnc3C1)C2 [Example 2.02, [2-cyclopropyl-6-(oxan-4-ylmethoxy)pyridin-4-yl]-[5-(1,4,6,7-tetrahydrotriazolo[4,5-c]pyridine-5-carbonyl)-1,3,4,6-tetrahydropyrrolo[3,4-c]pyrrol-2-yl]methanone] | 6
15 | NS(=O)(=O)C1CCN(C(=O)N2CC3=C(CN(C(=O)c4cc(OCC5CCOCC5)nc(C5CC5)c4)C3)C2)CC1 [Example 2.04, 1-[2-[2-cyclopropyl-6-(oxan-4-ylmethoxy)pyridine-4-carbonyl]-1,3,4,6-tetrahydropyrrolo[3,4-c]pyrrole-5-carbonyl]piperidine-4-sulfonamide] | 5.5
16 | O=C(c1cc(OCC2CCOCC2)nc(C2CC2)c1)N1CC2=C(C1)CN(C(=O)N1CCc3c(cn[nH]c3=O)C1)C2 [Example 2.08, 6-[2-[2-cyclopropyl-6-(oxan-4-ylmethoxy)pyridine-4-carbonyl]-1,3,4,6-tetrahydropyrrolo[3,4-c]pyrrole-5-carbonyl]-2,5,7,8-tetrahydropyrido[3,4-d]pyridazin-1-one] | 10
17 | O=C(c1cc(OCC2CCOCC2)nc(C2CC2)c1)N1CC2=C(C1)CN(C(=O)N1CCc3c(n[nH]c3O)C1)C2 [Example 2.12, [2-cyclopropyl-6-(oxan-4-ylmethoxy)pyridin-4-yl]-[5-(3-hydroxy-2,4,5,7-tetrahydropyrazolo[3,4-c]pyridine-6-carbonyl)-1,3,4,6-tetrahydropyrrolo[3,4-c]pyrrol-2-yl]methanone] | 441
18 | O=C(c1cc(OCC2CCOCC2)nc(C2CC2)c1)N1CC2=C(C1)CN(C(=O)N1CCc3onc(O)c3C1)C2 [Example 2.13, [2-cyclopropyl-6-(oxan-4-ylmethoxy)pyridin-4-yl]-[5-(3-hydroxy-6,7-dihydro-4H-[1,2]oxazolo[4,5-c]pyridine-5-carbonyl)-1,3,4,6-tetrahydropyrrolo[3,4-c]pyrrol-2-yl]methanone] | 97
19 | O=C1NC(=O)N2CCN(C(=O)N3CC4=C(CN(C(=O)c5cc(OCC6CCOCC6)nc(C6CC6)c5)C4)C3)CC12 (centres unmarked) [Example 2.14, 7-[2-[2-cyclopropyl-6-(oxan-4-ylmethoxy)pyridine-4-carbonyl]-1,3,4,6-tetrahydropyrrolo[3,4-c]pyrrole-5-carbonyl]-5,6,8,8a-tetrahydroimidazo[1,5-a]pyrazine-1,3-dione] | 122
20 | O=C(OCc1c[nH]nn1)N1CC2=C(C1)CN(C(=O)c1cc(OCC3CCOCC3)nc(C3CC3)c1)C2 [Example 3.00, (1H-1,2,3-Triazol-4-yl)methyl 5-(2-cyclopropyl-6-((tetrahydro-2H-pyran-4-yl)methoxy)isonicotinoyl)-3,4,5,6-tetrahydropyrrolo[3,4-c]pyrrole-2(1H)-carboxylate] | 36
21 | NS(=O)(=O)C1CCN(C(=O)C2CC3=C(C2)CN(C(=O)c2cc(OCC4CCOCC4)nc(C4CC4)c2)C3)CC1 [Example 4.00, 1-[2-[2-Cyclopropyl-6-(oxan-4-ylmethoxy)pyridine-4-carbonyl]-3,4,5,6-tetrahydro-1H-cyclopenta[c]pyrrole-5-carbonyl]piperidine-4-sulfonamide] | 11
22 | O=C(c1cc(OCC2CCOCC2)nc(C2CC2)c1)N1CC2=C(CN(Cc3ccc4[nH]c(=O)oc4c3)C2)C1 [Example 5.00, 6-[[5-[2-Cyclopropyl-6-(oxan-4-ylmethoxy)pyridine-4-carbonyl]-1,3,4,6-tetrahydropyrrolo[3,4-c]pyrrol-2-yl]methyl]-3H-1,3-benzoxazol-2-one] | 1
23 | NS(=O)(=O)C1(F)CCN(C(=O)N2CC3=C(CN(C(=O)c4cc(OCC5CCOCC5)nc(C5CC5)c4)C3)C2)CC1 [Example 6.00, 1-[2-[2-Cyclopropyl-6-(oxan-4-ylmethoxy)pyridine-4-carbonyl]-1,3,4,6-tetrahydropyrrolo[3,4-c]pyrrole-5-carbonyl]-4-fluoropiperidine-4-sulfonamide] | 3
